Assay results as given in patent US6498243B1, “Epimorphin antagonist and process for producing it” (Sumitomo Electric Industries, Ltd., priority 1996, dated 2002).

Columns and labels:
Type in all cases: cell-based
[1] = tested on: morphogenetic action of epimorphin on a pulmonary primordium; test: Inhibitory action on morphogenesis of bronchus, organ culture of pulmonary primordium; conditions: 0.35 mg/ml in DH medium; ICR mouse fetal pulmonary primordium (12 days of gestation); 3 days of culture; 5% CO2 at 37° C.
Description: (§1) A pulmonary primordium was removed from the fetus of the ICR pregnant mouse (Nippon Charles River, 12 days of gestation) under a stereoscopic microscope. The pulmonary primordium taken was placed on Nuclepore membrane filter (SN 110419) floated on a culture medium (DH medium, or 0.35 mg/ml polypeptide A-containing DH medium). Organ culture was performed in 5% CO2 at 37° C. to investigate the effect of polypeptide A on the morphogenesis of the bronchus. […] This manner of inhibition of morphogenesis was exactly the same as in treatment with MC-1, i.e., antibodies inhibiting the function of epimorphin.

[2] = tested on: hair follicle morphogenetic action of epimorphin on a maxillary skin; test: Inhibitory action on morphogenesis of maxillary skin (hair follicle), organ culture; conditions: 0.35 mg/ml in DH medium; ICR mouse fetal maxillary skin (13 days of gestation); 3 days of culture; 5% CO2 at 37° C.
Description: as §1, with “maxillary skin” for “pulmonary primordium”, “13” for “12”, “hair follicle.” for “bronchus.”

[3] = tested on: cell strain C3H/10T1/2clone8; test: Cell adhesion to coated dishes (O.D. at 260 nm of bound cells); conditions: one hour; for cell adhesion compared with modified epimorphins: coated dishes, C3H/10T1/2clone8 cells; for O.D. at 260 nm (number of the cells bound to the dishes, indicator of cell adhesion): specimen coated on suspension culture dishes, C3H/10T1/2clone8 cells in DH medium with 20 mg/ml bovine serum albumin, control (untreated) 0.0194
Excerpt: The polypeptides A, B and C of the present invention obtained in Example 1, and the modified epimorphins (fragment (123) and fragment (2), each having the same cell adhesion capacity as that of natural type epimorphin) were coated on suspension culture medium dishes. After drying, the dishes were washed once with 8M urea/lysis buffer. Then, the dishes were washed 5 times with PBS^−, and the cell strain C3H/10T1/2clone8 (Dainippon Pharmaceutical Co., Ltd., 08-226) was sprinkled on the dishes using D-MEM/F-12 culture medium (GIBCO BRL, 12400-024; hereinafter called “DH medium”) containing 20 mg/ml bovine serum albumin (SIGMA, A-7030). One hour later, the dishes were washed 3 times with PBS^−, and then the cells were collected using 0.5N NaOH. The O.D. at 260 nm was measured to determine the number of the cells bound to the dishes. The cell count was used as an indicator of the cell adhesion of each specimen. The O.D.'s found were 1.5237 for polypeptide A, 1.4251 for polypeptide B, 1.4697 for polypeptide C, 1.4959 for fragment (123), 1.4478 for fragment (2), and 0.0194 for control (untreated).

Substance | morphogenesis of the bronchus [1] | morphogenesis of hair follicles [2] | cell adhesion compared with modified epimorphins [3] | O.D. at 260 nm (number of the cells bound to the dishes, indicator of cell adhesion) [3]
polypeptide A: 19 amino acids, 1st (N-terminal) to 19th of the functional domain (SEQ ID NO: 8) of natural type mouse epimorphin, chemically synthesized (NGNRTSVDLRIRRTQHSVL; listed as Mus musculus) | markedly inhibited | markedly inhibited | cell adhesion comparable to that of the modified epimorphins | 1.5237
polypeptide B: 39 amino acids, 1st (N-terminal) to 39th of the functional domain (SEQ ID NO: 8) of natural type mouse epimorphin (NGNRTSVDLRIRRTQHSVLSRKFVDVMAEYNEAQILFRE; listed as Mus musculus) |  |  | cell adhesion comparable to that of the modified epimorphins | 1.4251
polypeptide C: 41 amino acids, 1st (N-terminal) to 41st of the functional domain (SEQ ID NO: 8) of natural type mouse epimorphin (NGNRTSVDLRIRRTQHSVLSRKFVDVMAEYNEAQILFRERS; listed as Mus musculus) |  |  | cell adhesion comparable to that of the modified epimorphins | 1.4697
